According to article PMC7990796, “Efficacy of a Combined Antiplatelet Therapy Is Not Affected by a Simultaneous Binding of Cangrelor and PSB 0777 to Albumin” (Frontiers in Pharmacology, 2021):
Read-outs that look alike come from different tables or passages of the source.

Assays:
[1] = system: HSA; settings: 2005, cited from earlier work
[2] = molecular target: T1, human serum albumin (Homo sapiens, UniProt P02768); test: Synchronous fluorescence spectra of HSA; format: binding; set-up: purchased Sigma (St. Louis, MO, United States); settings: 0‒38.5 μM
T1 sequence (P02768 25-609): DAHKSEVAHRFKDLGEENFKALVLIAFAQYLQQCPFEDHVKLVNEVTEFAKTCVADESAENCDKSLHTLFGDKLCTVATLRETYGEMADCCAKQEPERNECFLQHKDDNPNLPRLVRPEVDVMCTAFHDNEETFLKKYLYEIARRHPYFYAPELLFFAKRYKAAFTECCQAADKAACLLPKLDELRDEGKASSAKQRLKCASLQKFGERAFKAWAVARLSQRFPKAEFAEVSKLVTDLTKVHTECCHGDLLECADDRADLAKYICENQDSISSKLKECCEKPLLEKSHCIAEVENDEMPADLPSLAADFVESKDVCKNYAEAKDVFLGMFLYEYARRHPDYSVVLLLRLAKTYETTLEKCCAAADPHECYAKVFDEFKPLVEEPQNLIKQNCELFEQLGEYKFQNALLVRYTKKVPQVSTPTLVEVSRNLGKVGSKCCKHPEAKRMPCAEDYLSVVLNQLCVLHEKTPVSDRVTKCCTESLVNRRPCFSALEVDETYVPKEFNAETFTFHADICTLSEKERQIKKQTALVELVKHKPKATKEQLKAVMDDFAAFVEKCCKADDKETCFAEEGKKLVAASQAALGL
Description: (§1) The fluorescence measurements for albumin-drug complexes were performed using a LS50B spectrofluorometer (Perkin Elmer, Waltham, MA, United States) equipped with 1.0 cm quartz cell. The fluorescence spectra for HSA solution (2.5 µM in 0.1 M phosphate buffer, pH 7.4) were recorded in the range of wavelength from 250 to 500 nm, with the excitation at 280 nm and the emission set at 350 nm. The slit widths for excitation and emission beams were set to 5 and 10 nm, respectively. The Perkin-Elmer FL WinLab software v. 4.00.03 was used to collect the measured data. An appropriate buffer blank spectrum was subtracted from the measured spectra for fluorescence background correction. The optical density of HSA solution was below 0.1 and within the albumin concentration range of 0‐2.5 µM we observed a linear relationship between protein concentration and fluorescence intensity (p < 0.0001, R^2 = 0.995). In consequence, the albumin fluorescence was not corrected for the inner filter effect. All measurements, except a thermodynamic analysis of the binding of antiplatelet compounds to HSA were performed at 25°C after 30 s incubation of a sample with the examined compound. Stock and working solutions of all compounds used in the experiments were prepared in PBS buffer, pH 7.4. The protein concentration was determined by BCA method ([Smith et al., 1985]).
To monitor changes in the polarity around the tyrosine and tryptophan residues of HSA evoked by the examined compounds, the synchronous fluorescence spectra of HSA (Δλ 15 nm and Δλ 60 nm) were recorded in the presence of increasing concentrations of PSB 0777 and cangrelor (0‒38.5 μM with 4 μM intervals).

[3] = molecular target: T1, human serum albumin; test: Fluorescence quenching of HSA in the presence of a competitor (warfarin or cangrelor); format: binding; set-up: purchased Sigma (St. Louis, MO, United States); settings: for Kd: mean [95% CI], n = 5–6
Description: as §1
[…]. [Chaves et al., 2018]; [Manjushree and Revanasiddappa, 2019]). […].
Furthermore, to determine whether one antiplatelet compound could be displaced from HSA by the other, the binding site marker experiments were repeated, i.e. by titration of HSA with PSB 0777 (0‒38.5 µM) in the presence of 2.5 µM cangrelor, instead of a marker.

[4] = molecular target: T1, human serum albumin; set-up: purchased Sigma (St. Louis, MO, United States); method as in Boncler et al., 2018; Wzorek et al., 2020; settings: SPR; ref Boncler et al., 2018; Wzorek et al., 2020; read-out: affinity of binding to HSA (SPR); cited from earlier work
[5] = molecular target: T1, human serum albumin; test: Fluorescence quenching of HSA (Stern-Volmer, saturation binding, van't Hoff analysis); settings: for Number of binding sites n / Kd: mean [95% CI]; for KA: KA = 1/KD; for decrease of HSA fluorescence: 2.5 µM HSA; for ΔH^θ / ΔS^θ: van't Hoff plot, 292, 302, 312 K
Description: The fluorescence measurements for albumin-drug complexes were performed using a LS50B spectrofluorometer (Perkin Elmer, Waltham, MA, United States) equipped with 1.0 cm quartz cell. […] The slit widths for excitation and emission beams were set to 5 and 10 nm, respectively. The Perkin-Elmer FL WinLab software v. 4.00.03 was used to collect the measured data. An appropriate buffer blank spectrum was subtracted from the measured spectra for fluorescence background correction. […] In consequence, the albumin fluorescence was not corrected for the inner filter effect. All measurements, except a thermodynamic analysis of the binding of antiplatelet compounds to HSA were performed at 25°C after 30 s incubation of a sample with the examined compound. Stock and working solutions of all compounds used in the experiments were prepared in PBS buffer, pH 7.4.
To obtain the binding parameters: dissociation constant (KD) and the number of binding sites per protein molecule (n), the experimental data were fit to a saturation binding curve using nonlinear regression analysis.
The free energy change was estimated from the following relationship Eq. 4: ΔG^θ=ΔH^θ−TΔS^θ (4)

[6] = system: platelets (platelet-rich plasma, isolated platelets); test: Inhibition of ADP-induced platelet activation (P-selectin/CD62P expression, flow cytometry); format: cell-based, human; settings: 17 nM, 10 μM ADP; for decrease of ADP-dependent platelet activation: n = 5; for inhibition at 0.017 µM: Homo sapiens, Platelet, n = 6
Description: Human blood was obtained from consecutively recruited healthy volunteers (simple random non-stratified sampling): four men and seven women; mean age 25 ± 5 years. All individuals provided their written informed consent to participate in the study. The exclusion criteria were the same as described previously ([Wzorek et al., 2020]). The study was approved by the Human Studies Committee of the Medical University of Lodz (Poland) and was conducted in accordance with the guidelines established by the Declaration of Helsinki. Whole blood was collected into polypropylene tubes with a blood-to-acid citrate dextrose solution (ACD) ratio of 6:1 (vol:vol).
Human platelet-rich plasma (PRP) was prepared by centrifuging of anticoagulated whole blood at 190 x g for 12 min at 37°C. Platelet-poor plasma (PPP) was prepared by centrifuging the whole blood fraction left after removal of the PRP at 2500 x g for 12 min at 37°C. Platelet count in PRP was measured with automated haematology analyzer Sysmex XS-800i™ (Sysmex, Kobe, Japan) and adjusted to 1 × 10^8 cells per ml.
Suspensions of isolated platelets were obtained from PRP separated from anticoagulated whole blood containing 50 ng/ml PGE1. PRP was centrifuged at 800 x g for 15 min at 37°C to obtain a platelet pellet. Platelet pellet was immediately suspended in the Tyrode buffer (134 mM NaCl, 12 mM NaHCO3, 2.9 mM KCl, 0.34 mM Na2HPO4, 1 mM MgCl2, 10 mM HEPES, 5 mM glucose, pH 7.4) and diluted to a count 1 × 10^8 per ml, as described above.
The effect of plasma or HSA on inhibition of platelet activation by cangrelor was assessed by two-colour flow cytometry with the use of anti-CD61/PerCP (for platelet gating) and anti-CD62/PE (for detection of activated platelets). The antiplatelet activity of cangrelor was evaluated in PRP and suspensions of isolated platelets, when the effect of plasma was examined, or in isolated platelets containing 4% HSA, when the effect of albumin was studied. […] The activated platelets were stained with antibodies prior to fixation as described previously ([Wzorek et al., 2020]). A total of 10,000 events were acquired in each experiment using a FACSCanto II flow cytometer and surface expression of CD62P (P-selectin) in platelets was analysed using FACS/Diva v. 6.0 software (Becton-Dickinson, Franklin Lakes, NJ, United States).

[7] = molecular target: T1, human serum albumin; test: Surface plasmon resonance binding to immobilized HSA (Biacore X)
Description: Briefly, 100 µg of HSA was dissolved in 1 ml of 10 mM sodium acetate buffer, pH 4.0, and immobilized on the flow cell 1 of the sensor chip surface. No protein was immobilized on the flow cell 2, which was used as a control. […] The curves from three independent experiments were analyzed by global curve fitting of the entire data set using the Langmuir binding model with the BIAevaluation 4.1.1 software (Biacore AG, Uppsala, Sweden).

[8] = system: platelet function in whole blood; set-up: method as in Boncler et al., 2018; settings: ref Boncler et al., 2018; cited from earlier work
[9] = concentration range 0–5 μM, 25°C
[10] = highest drug concentration 38.5 µM, n = 3

SMILES	mean red shift of emission peak ([2]; Δλ 15 nm (tyrosine)) [nm]	mean red shift of emission peak ([2]; Δλ 60 nm (tryptophan)) [nm]	increase of dissociation constant in the presence of competitor compared to control ([3]; competitor warfarin) [fold]	n with competitor ([3]; competitor warfarin 2.5 µM)	n without competitor ([3]; control of the warfarin series)	Number of binding sites n ([5]; 0‒38.5 µM, n = 3)	ΔG^θ ([5]; 292 K) [kcal/mol]	ΔG^θ ([5]; 302 K) [kcal/mol]	KA ([5]; 302 K)	ΔG^θ ([5]; 312 K) [kcal/mol]	KA ([5]; 312 K)	decrease of HSA fluorescence [5, 9] [%]	decrease of HSA fluorescence [5, 10] [%]	ΔH^θ [5] [kcal/mol]	ΔS^θ [5] [J/mol * K]	further results
CC(C)Cc1ccc(C(C)C(=O)O)cc1 (centres unmarked) [ibuprofen]	–	–	–	–	–	–	–	–	–	–	–	–	–	–	–	KA (binding constant) reported earlier ([1]; used in the racemic form, ref Dufour and Dangles): 10^5–10^6 M^−1
Nc1nc(SCCc2ccc(S(=O)(=O)O)cc2)nc2c1ncn2[C@@H]1O[C@H](CO)[C@@H](O)[C@H]1O [PSB 0777]	0.5	0.8	1.4	0.59 [0.19‒0.99]	0.69 [0.51‒0.88]	0.83 [−0.22 to 1.87]	-6.551	-6.733	6.43 [−5.24 to 1.99] × 10^4 [M^−1]	-6.917	7.50 [−0.90 to 3.91] × 10^4 [M^−1]	25	70	-1.21	76.49	increase of dissociation constant in the presence of competitor compared to control ([3]; competitor cangrelor): 1.2 fold; n with competitor ([3]; competitor cangrelor 2.5 µM): 0.65 [0.39‒0.92]; n without competitor ([3]; control of the cangrelor series): 0.61 [0.32‒0.89]; Kd [4]: 80.6 µM
CSCCNc1nc(SCCC(F)(F)F)nc2c1ncn2[C@@H]1O[C@H](COP(=O)(O)OP(=O)(O)C(Cl)(Cl)P(=O)(O)O)[C@@H](O)[C@H]1O [cangrelor]	0.3	2.1	2	1.39 [−0.07 to 2.85]	1.10 [0.67‒1.52]	0.99 [−0.29 to 2.27]	-6.522	-6.812	10.31 [0.20‒6.97] × 10^4 [M^−1]	-7.101	8.47 [0.19‒5.45] × 10^4 [M^−1]	40	75	1.93	121.01	decrease of ADP-dependent platelet activation ([6]; isolated platelets (compared with PRP)): 95%; decrease of ADP-dependent platelet activation ([6]; platelet-rich plasma): 77%; inhibition at 0.017 µM ([6]; control isolated platelets without HSA): 97%; inhibition at 0.017 µM ([6]; isolated platelets with 4% HSA): 74%; Kd ([3]; competitor warfarin 2.5 µM, read-out: KD with competitor): 16.8 µM; Kd ([3]; control of the warfarin series, read-out: KD without competitor): 8.3 µM; Kd ([7]; KA (equilibrium association constant), obtained from the binding rate constants): 16.3 µM; koff ([7]; human, pH 7.4): 0.0573 ± 0.000323 s⁻¹; kon ([7]; human, pH 7.4): 2820 ± 1.4e+06 M⁻¹ s⁻¹; Kd ([5]; 0‒38.5 µM, nonlinear regression, n = 3): 10.9 µM; Kd ([5]; 292 K, n = 3): 14.5 µM; Kd ([5]; 302 K, n = 3): 9.7 µM; Kd ([5]; 312 K, n = 3): 11.8 µM; IC50 [8]: 0.017 µM
CC(=O)CC(c1ccccc1)c1c(O)c2ccccc2oc1=O (centres unmarked) [warfarin]	–	–	–	–	–	–	–	–	–	–	–	–	–	–	–	KA reported earlier ([1]; ref Yamasaki et al., 1996, Watanabe et al., 2001, Dufour and Dangles): 10^4–10^5 M^−1
